Where “and” joins values, the source holds several entries; their conditions need not be identical. Identical values can stand only once.
Molecular target: T1, CCR2 (Homo sapiens, UniProt P41597)
T1 sequence (P41597 1-360 isoform P41597-2): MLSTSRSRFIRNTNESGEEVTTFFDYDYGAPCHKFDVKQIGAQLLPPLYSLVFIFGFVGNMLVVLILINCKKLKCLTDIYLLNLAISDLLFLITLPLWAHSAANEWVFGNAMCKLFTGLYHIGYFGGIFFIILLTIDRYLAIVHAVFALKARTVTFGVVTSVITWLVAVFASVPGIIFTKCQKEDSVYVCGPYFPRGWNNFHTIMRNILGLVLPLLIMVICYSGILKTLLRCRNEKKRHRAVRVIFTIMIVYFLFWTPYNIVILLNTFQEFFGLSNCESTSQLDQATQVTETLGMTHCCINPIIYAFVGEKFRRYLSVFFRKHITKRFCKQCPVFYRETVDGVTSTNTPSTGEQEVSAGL
Test: MCP-1 Receptor Binding Assay in THP-1 Cells
Conditions: for IC50: THP-1 cells, 0.5 nM 125I labeled MCP-1, 2 hours at 30° C., read-out: Mean Ligand Binding IC50 (inhibition of MCP-1 binding to CCR2); for inhibition at 25 µM: MCP-1 binding to CCR2, test concentration of 25 μM, unless indicated otherwise, read-out: % Inhibition Ligand Binding
Description: THP-1 cells were obtained from American Type Culture Collection (Manassas, Va., USA). […] The cell density was maintained between 0.5×10^6 cells/mL.
Cells were then harvested onto a filter plate, dried, and 20 μL of Microscint 20 was added to each well. Plates were counted in a TopCount NXT, Microplate Scintillation & Luminescence Counter (Perkin-Elmer Life Sciences, Inc. Boston, Mass.). Blank values (buffer only) were subtracted from all values and drug treated values were compared to vehicle treated values. 1 μM cold MCP-1 was used for nonspecific binding.

SMILES	IC50	inhibition at 25 µM [%]
C[N+]1(Cc2ccc(NC(=O)c3ccc(Cl)c(Cl)c3)cc2)CCCCC1 [Cpd 50, 1-[4-(3,4-dichloro-benzoylamino)-benzyl]-1-methyl-piperidinium iodide]	2.6 µM	
C[N+]1(Cc2ccc(NC(=O)c3ccc(Cl)c(Cl)c3)cc2)CCCC1 [Cpd 51, 1-[4-(3,4-dichloro-benzoylamino)-benzyl]-1-methyl-pyrrolidinium iodide]	2.7 µM	
C[N+]1(Cc2cccc(NC(=O)c3cccc(C(F)(F)F)c3)c2)CCCCC1 [Cpd 56, 1-methyl-1-[3-(3-trifluoromethyl-benzoylamino)-benzyl]-piperidinium iodide]	11.8 µM	
C[N+]1(Cc2ccc(CNC(=O)C=Cc3ccc(Cl)c(Cl)c3)cc2)CCOCC1 [Cpd 58, 4-(4-{[3-(3,4-dichloro-phenyl)-acryloylamino]-methyl}-benzyl)-4-methyl-morpholin-4-ium iodide]		53
C[N+]1(Cc2ccc(NC(=O)c3ccc(Cl)c(Cl)c3)cc2)CCOCC1 [Cpd 59, 4-[4-(3,4-dichloro-benzoylamino)-benzyl]-4-methyl-morpholin-4-ium iodide]	10 µM	
C[N+]1(Cc2ccc(NC(=O)C=Cc3ccc(Cl)c(Cl)c3)cc2)CCOCC1 [Cpd 60, 4-{4-[3-(3,4-dichloro-phenyl)-acryloylamino]-benzyl}-4-methyl-morpholin-4-ium iodide]		20
C[N+]1(Cc2ccc(CNC(=O)C=Cc3cccc(C(F)(F)F)c3)cc2)CCOCC1 [Cpd 62, 4-methyl-4-(4-{[3-(3-trifluoromethyl-phenyl)-acryloylamino]-methyl}-benzyl)-morpholin-4-ium iodide]		9
C[N+](C)(Cc1cccc(NC(=O)c2cccc(C(F)(F)F)c2)c1)C1CCOCC1 [Cpd 65, dimethyl-(tetrahydro-pyran-4-yl)-[3-(3-trifluoromethyl-benzoylamino)-benzyl]-ammonium iodide]		61
C[N+](C)(Cc1ccc(NC(=O)c2ccc(F)c(Cl)c2)cc1)C1CCCCC1 [Cpd 76, [4-(3-chloro-4-fluoro-benzoylamino)-benzyl]-cyclohexyl-dimethyl-ammonium iodide]	0.16 µM	
C[N+](C)(Cc1ccc(NC(=O)c2cccc(Cl)c2Cl)cc1)C1CCCCC1 [Cpd 77, cyclohexyl-[4-(2,3-dichloro-benzoylamino)-benzyl]-dimethyl-ammonium iodide]		53
C[N+](C)(Cc1ccc(NC(=O)c2c(Cl)cccc2Cl)cc1)C1CCCCC1 [Cpd 78, cyclohexyl-[4-(2,6-dichloro-benzoylamino)-benzyl]-dimethyl-ammonium iodide]	13.4 µM	
COc1ccc(C(=O)Nc2ccc(C[N+](C)(C)C3CCCCC3)cc2)cc1Cl [Cpd 79, [4-(3-chloro-4-methoxy-benzoylamino)-benzyl]-cyclohexyl-dimethyl-ammonium iodide]	0.31 µM	
Cc1ccc(C(=O)Nc2ccc(C[N+](C)(C)C3CCCCC3)cc2)cc1Cl [Cpd 80, [4-(3-chloro-4-methyl-benzoylamino)-benzyl]-cyclohexyl-dimethyl-ammonium iodide]	0.03 µM	
C[N+](C)(Cc1ccc(NC(=O)c2cc(Cl)ccc2Cl)cc1)C1CCCCC1 [Cpd 81, cyclohexyl-[4-(2,5-dichloro-benzoylamino)-benzyl]-dimethyl-ammonium iodide]	3 µM	
C[N+](C)(Cc1ccc(NC(=O)c2cccc(-c3ccc(C(F)(F)F)cc3)c2)cc1)C1CCOCC1 [Cpd 85, dimethyl-(tetrahydro-pyran-4-yl)-{4-[(4′-trifluoromethyl-biphenyl-3-carbonyl)-amino]-benzyl}-ammonium iodide]	5.2 µM	
Cc1ccc(-c2cccc(C(=O)Nc3ccc(C[N+](C)(C)C4CCCCC4)cc3)c2)cc1 [Cpd 86, cyclohexyl-dimethyl-{4-[(4′-methyl-biphenyl-3-carbonyl)-amino]-benzyl}-ammonium iodide]	6 µM	
C[N+](C)(Cc1ccc(NC(=O)c2ccc(-c3ccccc3)cc2)cc1)C1CCOCC1 [Cpd 88, {4-[(biphenyl-4-carbonyl)-amino]-benzyl}-dimethyl-(tetrahydro-pyran-4-yl)-ammonium iodide]	0.87 µM	
C[N+](C)(Cc1ccc(NC(=O)c2cccc3ccccc23)cc1)C1CCOCC1 [Cpd 89, dimethyl-{4-[(naphthalene-1-carbonyl)-amino]-benzyl}-(tetrahydro-pyran-4-yl)-ammonium iodide]		29
C[N+](C)(Cc1ccc(NC(=O)c2ccc3ccccc3c2)cc1)C1CCOCC1 [Cpd 90, dimethyl-{4-[(naphthalene-2-carbonyl)-amino]-benzyl}-(tetrahydro-pyran-4-yl)-ammonium iodide]	0.22 µM	
CC[N+](C)(Cc1ccc(NC(=O)c2ccc3ccccc3c2)cc1)C1CCOCC1 (stereo not shown) [Cpd 91, ethyl-methyl-{4-[(naphthalene-2-carbonyl)-amino]-benzyl}-(tetrahydro-pyran-4-yl)-ammonium iodide]	4.1 µM	
CCC[N+](C)(Cc1ccc(NC(=O)c2ccc3ccccc3c2)cc1)C1CCOCC1 (stereo not shown) [Cpd 92, methyl-{4-[(naphthalene-2-carbonyl)-amino]-benzyl}-propyl-(tetrahydro-pyran-4-yl)-ammonium iodide]		54

The remaining lines, values ahead:

IC50	inhibition at 25 µM [%]	SMILES
11.9 µM		C[N+]1(Cc2ccc(CNC(=O)C=Cc3cccc(Br)c3)cc2)CCCCC1 [Cpd 49, 1-(4-{[3-(3-bromo-phenyl)-acryloylamino]-methyl}-benzyl)-1-methyl-piperidinium iodide]
2.6 µM		C[N+]1(Cc2cccc(NC(=O)C=Cc3cccc(Br)c3)c2)CCCCC1 [Cpd 52, 1-{3-[3-(3-bromo-phenyl)-acryloylamino]-benzyl}-1-methyl-piperidinium iodide]
3.2 µM		C[N+]1(Cc2ccc(NC(=O)C=Cc3ccc(Cl)c(Cl)c3)cc2)CCCCC1 [Cpd 53, 1-{4-[3-(3,4-dichloro-phenyl)-acryloylamino]-benzyl}-1-methyl-piperidinium iodide]
5.4 µM		C[N+]1(Cc2ccc(NC(=O)C=Cc3cccc(Br)c3)cc2)CCCCC1 [Cpd 55, 1-{4-[3-(3-bromo-phenyl)-acryloylamino]-benzyl}-1-methyl-piperidinium iodide]
13.3 µM		C[N+]1(Cc2ccc(NC(=O)C=Cc3cccc(C(F)(F)F)c3)cc2)CCCCC1 [Cpd 57, 1-methyl-1-{4-[3-(3-trifluoromethyl-phenyl)-acryloylamino]-benzyl}-piperidinium iodide]
2.7 µM		C[N+]1(Cc2ccc(NC(=O)C=Cc3cccc(Br)c3)cc2)CCOCC1 [Cpd 61, 4-{4-[3-(3-bromo-phenyl)-acryloylamino]-benzyl}-4-methyl-morpholin-4-ium iodide]
3.5 µM		C=CC[N+](C)(Cc1ccc(NC(=O)C=Cc2cccc(Br)c2)cc1)C1CCSCC1 (stereo not shown) [Cpd 63, allyl-{4-[3-(3-bromo-phenyl)-acryloylamino]-benzyl}-methyl-(tetrahydro-thiopyran-4-yl)-ammonium iodide]
	63	C[N+](C)(Cc1ccc(CNC(=O)C=Cc2cccc(C(F)(F)F)c2)cc1)C1CCOCC1 [Cpd 64, dimethyl-(tetrahydro-pyran-4-yl)-(4-{[3-(3-trifluoromethyl-phenyl)-acryloylamino]-methyl}-benzyl)-ammonium iodide]
1.7 µM		Cc1cccc(C=CC(=O)Nc2ccc(C[N+](C)(C)C3CCOCC3)cc2)c1 [Cpd 66, dimethyl-(tetrahydro-pyran-4-yl)-[4-(3-m-tolyl-acryloylamino)-benzyl]-ammonium iodide]
1.5 µM		C[N+](C)(Cc1ccc(NC(=O)C=Cc2cccc(C(F)(F)F)c2)cc1)C1CCOCC1 [Cpd 68, dimethyl-(tetrahydro-pyran-4-yl)-{4-[3-(3-trifluoromethyl-phenyl)-acryloylamino]-benzyl}-ammonium iodide]
0.17 µM and 0.32 µM		C[N+](C)(Cc1ccc(NC(=O)C=Cc2ccc(Cl)c(Cl)c2)cc1)C1CCCCC1 [Cpd 71, cyclohexyl-{4-[3-(3,4-dichloro-phenyl)-acryloylamino]-benzyl}-dimethyl-ammonium iodide]
0.58 µM		C[N+](C)(Cc1ccc(NC(=O)C=Cc2cccc(Br)c2)cc1)C1CCCCC1 [Cpd 72, {4-[3-(3-bromo-phenyl)-acryloylamino]-benzyl}-cyclohexyl-dimethyl-ammonium iodide]
0.44 µM		C[N+](C)(Cc1ccc(NC(=O)c2cccc(Br)c2)cc1)C1CCCCC1 [Cpd 73, [4-(3-bromo-benzoylamino)-benzyl]-cyclohexyl-dimethyl-ammonium iodide]
1.5 µM		C[N+](C)(Cc1ccc(NC(=O)c2cccc(C(F)(F)F)c2)cc1)C1CCCCC1 [Cpd 74, cyclohexyl-dimethyl-[4-(3-trifluoromethyl-benzoylamino)-benzyl]-ammonium iodide]
1.2 µM		C[N+](C)(Cc1cccc(NC(=O)C=Cc2ccc(Cl)c(Cl)c2)c1)C1CCCCC1 [Cpd 83, cyclohexyl-{3-[3-(3,4-dichloro-phenyl)-acryloylamino]-benzyl}-dimethyl-ammonium iodide]
3.2 µM		C[N+](C)(Cc1cccc(NC(=O)C=Cc2ccc(F)cc2)c1)C1CCCCC1 [Cpd 84, cyclohexyl-{3-[3-(4-fluoro-phenyl)-acryloylamino]-benzyl}-dimethyl-ammonium iodide]

Reference: US7799824B2, “Quaternary salt CCR2 antagonists” (OraPharma, Inc., priority 2004, dated 2010)
